# According to the supplement of paper PMC10307832:
# Key:
# Test in all cases: relative viability (nuclei count vs DMSO), 5 days (fraction); higher = more cells survive
# [1] = compound: CCn1c(-c2nonc2N)nc2cnc(Oc3cccc(NC(=O)c4ccc(OCCN5CCOCC5)cc4)c3)cc21 + CC(C)C[C@H](NC(=O)[C@H](Cc1ccccc1)NC(=O)c1cnccn1)B(O)O [Bortezomib] (partner 0.002 µM)
# Procedure, shortened: (§1)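 For relative viability, nuclei counts in treated wells were divided by those in vehicle wells. Lung cancer cell lines had been pin-tool dosed in 1536-well plates the day after seeding and cultured for 5 days, then fixed and stained in one step (final 0.05% Triton X-100, 1% formaldehyde, 1 ug/ml Hoechst) and imaged at 4×. Doses were one drug alone or a fixed anchor-drug dose plus five library-drug doses (not always all listed) in √10 steps, and values are duplicate-plate medians.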
# Mirin + Foretinib = compound: N=C1NC(=O)/C(=C/c2ccc(O)cc2)S1 [Mirin] + COc1cc2c(Oc3ccc(NC(=O)C4(C(=O)Nc5ccc(F)cc5)CC4)cc3F)ccnc2cc1OCCCN1CCOCC1 [Foretinib] (partner 0.25 µM)
# Procedure, shortened: as §1
# Mirin + Lapatinib = compound: N=C1NC(=O)/C(=C/c2ccc(O)cc2)S1 [Mirin] + CS(=O)(=O)CCNCc1ccc(-c2ccc3ncnc(Nc4ccc(OCc5cccc(F)c5)c(Cl)c4)c3c2)o1 [Lapatinib] (partner 2 µM)
# Procedure, shortened: as §1
# Mirin + Crizotinib = compound: N=C1NC(=O)/C(=C/c2ccc(O)cc2)S1 [Mirin] + C[C@@H](Oc1cc(-c2cnn(C3CCNCC3)c2)cnc1N)c1c(Cl)ccc(F)c1Cl [Crizotinib] (partner 1 µM)
# Procedure, shortened: as §1
Cell Line,relative viability ([1]; first compound 0.04 µM),relative viability ([1]; first compound 0.1265 µM),relative viability ([1]; first compound 0.4 µM),relative viability ([1]; first compound 1.265 µM),relative viability ([1]; first compound 4 µM),relative viability (Mirin + Foretinib; first compound 0.25 µM),relative viability (Mirin + Foretinib; first compound 0.7906 µM),relative viability (Mirin + Foretinib; first compound 2.5 µM),relative viability (Mirin + Foretinib; first compound 7.906 µM),relative viability (Mirin + Foretinib; first compound 25 µM),relative viability (Mirin + Lapatinib; first compound 0.25 µM),relative viability (Mirin + Lapatinib; first compound 0.7906 µM),relative viability (Mirin + Lapatinib; first compound 2.5 µM),relative viability (Mirin + Lapatinib; first compound 7.906 µM),relative viability (Mirin + Lapatinib; first compound 25 µM),relative viability (Mirin + Crizotinib; first compound 0.25 µM),relative viability (Mirin + Crizotinib; first compound 0.7906 µM),relative viability (Mirin + Crizotinib; first compound 2.5 µM),relative viability (Mirin + Crizotinib; first compound 7.906 µM),relative viability (Mirin + Crizotinib; first compound 25 µM)
SW 1573,0.984,1.04,0.871,0.575,0.41,0.82,0.822,0.892,0.76,0.981,1.13,1.16,1.09,0.952,0.908,0.681,0.643,0.838,0.86,0.624
LOU-NH91,0.561,0.526,0.439,0.343,0.377,0.937,0.987,0.935,0.93,1.16,0.786,–,0.782,0.774,0.702,0.759,–,0.718,0.77,0.902
LXF-289,1.03,1.04,0.932,0.728,0.646,1.04,1.03,0.939,1.09,1.01,0.906,1.01,0.91,1.04,1.04,0.808,0.87,0.787,0.899,0.945
NCI-H1299,1.06,0.975,0.929,0.825,0.734,1.1,1.15,1.07,1.12,1.24,0.984,0.973,0.977,1.01,1.12,0.991,1.05,0.947,0.997,1.08
HARA,1.19,0.943,0.36,0.176,0.145,0.817,–,0.845,0.902,0.708,0.836,0.747,0.742,0.652,0.665,1.06,1.15,1.05,0.995,1.14
ChaGo-K-1,1.45,0.892,0.752,–,0.688,0.963,0.921,0.965,0.841,0.652,–,–,–,–,–,0.984,–,1.12,1.04,0.866
NCI-H2170,–,–,–,–,–,1.05,1,1.02,0.928,0.98,0.273,0.223,0.278,0.324,0.274,1.19,1.22,1.37,1.15,0.959
A549,–,–,–,–,–,0.89,1.02,0.902,0.956,1.04,0.914,1.15,1.04,1.08,0.598,0.799,0.9,0.739,0.675,0.68
NCI-H1623,–,–,–,–,–,0.787,0.708,0.865,0.716,0.625,–,–,–,–,–,–,–,–,–,–
